Measurements from patent US8258151B2, “3-aminoimidazo [1,2-A] pyridine derivatives as SGLT inhibitors” (Merck Patent GmbH, priority 2006, dated 2012).
pIC50: −log10 of the molar value.

Columns and labels:
SGLT2 = molecular target: T1, SGLT2 (Homo sapiens, UniProt P31639); assay: SGLT2 activity measurement: 14C-AMG uptake in BHK cells transfected with SGLT2; type: cell-based; details: AMG 2 mM, 37° C., 90 min
T1 construct: expressed in transfected cells
T1 sequence (P31639 1-672): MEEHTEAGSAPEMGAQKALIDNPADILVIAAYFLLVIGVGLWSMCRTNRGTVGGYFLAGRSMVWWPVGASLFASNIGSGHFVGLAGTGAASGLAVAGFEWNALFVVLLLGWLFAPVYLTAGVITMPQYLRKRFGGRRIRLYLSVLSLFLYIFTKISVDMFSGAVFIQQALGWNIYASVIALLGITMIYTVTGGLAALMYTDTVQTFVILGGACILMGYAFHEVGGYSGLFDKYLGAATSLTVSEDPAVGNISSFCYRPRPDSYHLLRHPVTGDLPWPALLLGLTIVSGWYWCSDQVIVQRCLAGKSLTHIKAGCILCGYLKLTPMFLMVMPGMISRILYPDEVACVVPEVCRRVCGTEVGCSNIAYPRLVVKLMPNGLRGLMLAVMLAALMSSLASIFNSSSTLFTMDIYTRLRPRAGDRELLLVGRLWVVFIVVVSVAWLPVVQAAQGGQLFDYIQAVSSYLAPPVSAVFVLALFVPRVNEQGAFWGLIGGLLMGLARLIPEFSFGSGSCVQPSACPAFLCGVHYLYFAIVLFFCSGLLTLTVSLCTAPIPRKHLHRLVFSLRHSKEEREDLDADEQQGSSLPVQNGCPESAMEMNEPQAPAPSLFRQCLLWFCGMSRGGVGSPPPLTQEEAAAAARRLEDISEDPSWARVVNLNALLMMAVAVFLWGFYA
From the text: (§1) The compounds can be tested on their SGLT inhibition properties by means of BHK cells expressing SGLT1 and SGLT2. The production of the cells and the testing can be carried out as described below.
To construct the SGLT2 expression vector (KL224), the SLC5A2 gene (homologous to NM_003041) was amplified from a cDNA library using standard PCR technology and cloned over NheI/XhoI sites into PCI-neo expression vector (Promega) containing neomycin as a selection marker. In this vector, transcription used the enhancer/promoter of human cytomegalovirus and the SV40 polyadenylation signal.
(§2) The final vector KL224 together with an additional vector containing a dihydrofolate reductase gene as a selection marker was introduced into cells. Transfection into BHK21 cells (ATCC CCL-10), cultivated in DMEM medium (GIBCO/BRL), supplemented with 10% foetal calf serum (FCS) and 20 mM glutamine, was carried out using calcium phosphate transfections according to Graham, F. L. and van der Ebb, A. J. (1973), Virology 52: 456 with 5-20 μg of uncut plasmids for 10^7 cells. Stable transfectants were selected in medium containing 1 mg/ml of G418 (GIBCO/BRL) and 20-5000 nM methotrexate as final concentration, where only cells which expressed the neomycin gene and overexpressed the dhfr gene were able to grow. After growth for 2-3 weeks, the cells were cloned (0.5 cells/well) and the clones were investigated for SGLT expression in the radioactive uptake assay.
Principally, uptake of ^14C-α-methyl-D-glucopyranoside (AMG) in, for example, Xenopus oocytes injected with the corresponding cRNA has been described (for example Wen-Sen Lee et al. (1994), J. Biol. Chem. 269, 12032-12039; Guofeng You et al. (1995), J. Biol. Chem. 270, 29365-29371).
(§3) A 96-well cell-based assay was developed and adapted to HTS requirements:
(§4) BHK cells (transfected with SGLT1 or SGLT2) were seeded into 96-well microtitre plates (Cultureplates, Perkin Elmer). After at least 24 h, medium was removed and the cell layer was washed with assay buffer (140 mM NaCl, 2 mM KCl, 1 mM CaCl2, 1 mM MgCl2, 10 mM HEPES, 5 mM Tris, adjusted with 1 M KOH to pH 7.4). After addition of 40 μl of assay buffer, 50 μl of AMG (50 μM for SGLT1 and 2 mM for SGLT2) in the presence or absence of compounds, the cells were incubated in a total volume of 100 μl at 37° C. for 90 min. Supernatant was removed by suction and discarded. The cells were washed and lysed by addition of 50 μl water. After 10 minutes at room temperature 200 μl Microscint 40 (Perkin Elmer) were added. The radioactivity was counted in a Topcount microplate scintillation counter (Perkin Elmer). The non-specific uptake was determined in sodium-free assay buffer (266 mM sucrose, 2 mM KCl, 1 mM CaCl2, 1 mM MgCl2, 10 mM HEPES, 5 mM Tris, adjusted with 1 M KOH to pH 7.4).

SGLT1 = molecular target: T2, SGLT1 (Homo sapiens, UniProt P13866); assay: SGLT1 activity measurement: 14C-AMG uptake in BHK cells transfected with SGLT1; type: cell-based; details: AMG 50 μM, 37° C., 90 min
T2 construct: expressed in transfected cells
T2 sequence (P13866 1-664): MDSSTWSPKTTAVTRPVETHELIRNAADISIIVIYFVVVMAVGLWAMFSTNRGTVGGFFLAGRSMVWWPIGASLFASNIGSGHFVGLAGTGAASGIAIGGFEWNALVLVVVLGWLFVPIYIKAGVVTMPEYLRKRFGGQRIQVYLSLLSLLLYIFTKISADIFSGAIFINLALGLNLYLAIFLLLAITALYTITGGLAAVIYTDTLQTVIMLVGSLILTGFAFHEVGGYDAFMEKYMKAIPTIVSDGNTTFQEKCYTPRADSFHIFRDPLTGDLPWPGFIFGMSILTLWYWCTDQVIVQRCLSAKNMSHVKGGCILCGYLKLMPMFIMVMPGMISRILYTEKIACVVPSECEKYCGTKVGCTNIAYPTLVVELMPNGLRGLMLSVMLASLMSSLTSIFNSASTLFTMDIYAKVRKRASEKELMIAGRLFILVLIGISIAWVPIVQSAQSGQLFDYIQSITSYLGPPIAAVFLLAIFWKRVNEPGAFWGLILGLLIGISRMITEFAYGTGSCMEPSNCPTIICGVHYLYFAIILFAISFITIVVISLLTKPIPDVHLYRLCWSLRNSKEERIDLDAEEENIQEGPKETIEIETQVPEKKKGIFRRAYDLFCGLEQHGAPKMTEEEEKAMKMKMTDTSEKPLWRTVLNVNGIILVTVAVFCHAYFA
From the text: as §1
To construct the SGLT1 expression vector (KL225), the SLC5A1 gene (homologous to NM_000343) was amplified from a cDNA library using standard PCR technology and cloned over NheI/XhoI sites into pcDNA3.1 expression vector (Invitrogen) containing neomycin as a selection marker. In this vector, transcription uses the enhancer/promoter of human cytomegalovirus.
as §2, with “KL225” for “KL224”, “assay. […]” for “assay.”
as §3, §4

Compound	pIC50 (SGLT2)	pIC50 (SGLT1)
COc1cccc(OCC(N)=O)c1-c1nc2ccc(F)cn2c1Nc1c(C)cccc1C [Compound A1, 2-[2-(aminocarbonylmethoxy)-6-methoxyphenyl]-3-(2,6-dimethylphenylamino)-6-fluoroimidazo[1,2-a]pyridine]	6.00 to 8.00	5.00 to 6.00
Cc1cccc(C)c1Nc1c(-c2c(C)cccc2OCC(N)=O)nc2ccc(F)cn12 [Compound A2, 2-[2-(aminocarbonylmethoxy)-6-methylphenyl]-3-(2,6-dimethylphenylamino)-6-fluoroimidazo[1,2-a]pyridine]	6.00 to 8.00	5.00 to 6.00
Cc1cccc(C)c1Nc1c(-c2c(Cl)cccc2OCC(N)=O)nc2ccc(F)cn12 [Compound A3, 2-[2-(aminocarbonylmethoxy)-6-chlorophenyl]-3-(2,6-dimethylphenylamino)-6-fluoroimidazo[1,2-a]pyridine]	6.00 to 8.00	5.00 to 6.00
NC(=O)COc1ccccc1-c1nc2ccccn2c1Nc1c(Cl)cccc1Cl [Compound A5, 2-[2-(Aminocarbonylmethoxy)phenyl]-3-(2,6-di-chlorophenylamino)imidazo[1,2-a]pyridine]	6.00 to 8.00	< 5.00
Cc1cccc(Cl)c1Nc1c(-c2ccccc2OCC(N)=O)nc2cccc(C)n12 [Compound A10, 2-[2-(Aminocarbonylmethoxy)phenyl]-3-(2-chloro-6-methylphenylamino)-5-methyl-imidazo[1,2-a]pyridine]	6.00 to 8.00	5.00 to 6.00
Cc1cccc2nc(-c3ccccc3OCC(N)=O)c(Nc3c(Cl)cccc3Cl)n12 [Compound A11, 2-[2-(Aminocarbonylmethoxy)phenyl]-3-(2,6-di-chlorophenylamino)-5-methylimidazo[1,2-a]-pyridine]	6.00 to 8.00	5.00 to 6.00
Cc1cccc(C)c1Nc1c(-c2ccccc2OCC(N)=O)nc2cccc(Cl)n12 [Compound A12, 2-[2-(Aminocarbonylmethoxy)phenyl]-3-(2,6-dimethylphenylamino)-5-chloroimidazo[1,2-a]-pyridine]	5.00 to 6.00	–
CCc1cccc2nc(-c3ccccc3OCC(N)=O)c(Nc3c(C)cccc3C)n12 [Compound A13, 2-[2-(Aminocarbonylmethoxy)phenyl]-3-(2,6-dimethylphenylamino)-5-ethylimidazo[1,2-a]-pyridine]	6.00 to 8.00	5.00 to 6.00
Cc1cccc(C)c1Nc1c(-c2c(C)cc(OCCN(C)C)cc2OCC(N)=O)nc2ccccn12 [Compound A119, 2-[2-(Aminocarbonylmethoxy)-4-(2-dimethyl-aminoethoxy)-6-methylphenyl]-3-(2,6-dimethyl-phenylamino)imidazo[1,2-a]pyridine]	5.00 to 6.00	–
COc1cc(OCC(N)=O)c(-c2nc3ccc(F)cn3c2Nc2c(C)cccc2C)cc1OC [Compound A189, 2-[2-(Aminocarbonylmethoxy)-4,5-dimethoxy-phenyl]-3-(2,6-dimethylphenylamino)-6-fluoro-imidazo[1,2-a]pyridine]	5.00 to 6.00	–
COc1cc(C)c(-c2nc3c(O)cccn3c2Nc2c(C)cccc2C)c(OCC(N)=O)c1 [Compound A193, 2-[2-(Aminocarbonylmethoxy)-4-methoxy-6-methylphenyl]-3-(2,6-dimethylphenylamino)-8-hydroxyimidazo[1,2-a]pyridine]	5.00 to 6.00	–
CCc1cc(OC)cc(OCC(N)=O)c1-c1nc2ccc(C(=O)O)cn2c1Nc1c(C)cccc1C [Compound A223, 2-[2-(Aminocarbonylmethoxy)-4-methoxy-6-ethylphenyl]-3-(2,6-dimethylphenylamino)-6-carboxyimidazo[1,2-a]pyridine]	5.00 to 6.00	–

Now from value to molecule:

pIC50 (SGLT2)	pIC50 (SGLT1)	Compound
6.00 to 8.00	< 5.00	Cc1cccc(C)c1Nc1c(-c2ccccc2OCC(N)=O)nc2ccccn12 [Compound A4, 2-[2-(Aminocarbonylmethoxy)phenyl]-3-(2,6-di-methylphenylamino)imidazo[1,2-a]pyridine]
6.00 to 8.00	< 5.00	Cc1cccc(Cl)c1Nc1c(-c2ccccc2OCC(N)=O)nc2ccccn12 [Compound A6, 2-[2-(Aminocarbonylmethoxy)phenyl]-3-(2-chloro-6-methylphenylamino)imidazo[1,2-a]-pyridine]
5.00 to 6.00	< 5.00	Cc1cccc(C(C)C)c1Nc1c(-c2ccccc2OCC(N)=O)nc2ccccn12 [Compound A7, 2-[2-(Aminocarbonylmethoxy)phenyl]-3-(2-isopropyl-6-methylphenylamino)imidazo-[1,2-a]pyridine]
5.00 to 6.00	< 5.00	Cc1cccc(C)c1Nc1c(-c2ccccc2OCC(N)=O)nc2c(C)cccn12 [Compound A8, 2-[2-(Aminocarbonylmethoxy)phenyl]-3-(2,6-di-methylphenylamino)-8-methylimidazo[1,2-a]-pyridine]
6.00 to 8.00	< 5.00	Cc1cccc(C)c1Nc1c(-c2ccccc2OCC(N)=O)nc2cccc(C)n12 [Compound A9, 2-[2-(Aminocarbonylmethoxy)phenyl]-3-(2,6-di-methylphenylamino)-5-methylimidazo[1,2-a]-pyridine]
6.00 to 8.00	< 5.00	COc1ccc(-c2nc3ccccn3c2Nc2c(C)cccc2C)c(OCC(N)=O)c1 [Compound A14, 2-[2-(Aminocarbonylmethoxy)-4-methoxy-phenyl]-3-(2,6-dimethylphenylamino)imidazo-[1,2-a]pyridine]
